# Legend:
# [1] = Chronic toxicity of suppositories: biochemical indexes of blood serum; type: in vivo, rats; conditions: male rats, suppositories, 1 month; for Cholesterol in blood serum: control 3.02 ± 0.08; for Urea in blood serum: control 8.44 ± 0.60; for Glucose in blood serum: control 9.76 ± 0.15; for ALT in blood serum: control 11.33 ± 1.96; for AST in blood serum: control 19.13 ± 1.02; for Bilirubin in blood serum: control 35.93 ± 2.19; for Creatinine in blood serum: control 40.23 ± 2.84; for Alkalinous phosphatase in blood serum: control 40.74 ± 1.57; for Total protein in blood serum: control 94.89 ± 6.67;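 for all read-outs here: inbred rats dosed rectally with softened suppositories, controls given matching volumes of sterile medical liquid paraffin, serum sampled one month into a two-month dosing course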
# Experimental: (§1) Two doses of preparations used in the experiments: 50 mg/kg and 500 mg/kg. Before the administration, the suppositories were softened by heating in a glass water bath at a temperature of 38-39° C., the soft mass was collected in tuberculin syringe in a volume of 1 ml, a needle with oliva was attached to the syringe, and the preparatory mass was introduced into the rectum of the animal for a depth of 1.5-2.0 cm. The animals of the control group were administered with sterile medical liquid paraffin in a volume corresponding to the volume of the investigated suppository. A complete course of administration of drugs to the animals was two months. A complex of laboratory diagnostic investigations was carried out one month after the beginning of the administration of the preparation to the animal—in a middle of the course (8 animals), two months after ending the course (8 animals) and three months after ending the recovery period of one month (8 animals). The mass of the body of the rats in the first month of administration of the preparation was determined weekly, and then once in two weeks. On the basis of the dynamics of an index of the mass of the animal body, the volume of preparation being administered was corrected taking into account the test dose.
# [2] = Chronic toxicity of suppositories: indexes of urine; type: in vivo, rats; conditions: rats, suppositories rectal, 1 month after administration
# Experimental: The experiments were conducted on inbred rats.
# [3] = Electrochemical activity: polarographic reduction on mercury dripping electrode; type: physicochemical; conditions: for i: 2.0% sodium chloride background, 9·10^−4 M; for i / −E1/2: 37° C., forward trace, average for the group of compounds; for −E1/2: vs SCE
# [4] = Morphine abstinence model: indicator enzymes ALT, AST, γ-GTP in blood plasma; conditions: 20.0 mg/kg intramuscularly three times a day; for γ-GTP in blood plasma, Ci: control 6.261 ± 1.80; for ALT in blood plasma, Ci: control 106.76 ± 111.35; for AST in blood plasma, Ci: control 179.881 ± 11.94
# Experimental: The experiments were carried out on rats in series of 7 animals on each compound according to the invention. Non-morphinized animal with not administered with compounds according to the invention were used as a control group. […] Then the rats were decapitated, the blood from somnolent arteries was collected in test tubes with solution EDTA as an anticoagulant, centrifuged at 1500 g for 15 minutes at 4° C.
# To estimate possible hepatoprotective action of the compounds according to the invention under conditions of development of an oxidizing stress in the liver cells, effect of these compounds on the most important biochemical blood indexes, in particular, on the content in blood plasma of indicator enzyme of aspartateaminotransferase (AST), alanineaminotransferase (ALT), γ-glutamiletranspeptidase (γ-GTP) was investigated. The content of enzymes was estimated by their catalyzing activity in blood plasma.
# The activity of AST, ALT and γ-GTP was determined by means of diagnostic sets DiaSys, Germany.
# [5] = Chronic toxicity of suppositories: indexes of peripheral blood; type: in vivo, rats; conditions: male rats, suppositories rectally; for Basophiles / Juveniles: 1 month/2 months (one value given), control 0
# Experimental: as §1
structure (smiles),measurement,setting,value
"Nc1cccc2c(=O)[nH][nH]c(=O)c12.[Na] [Compound 15, sodium salt of 5-amino-benzo[d]-3H-pyridazine-1,4-dione]",Cholesterol in blood serum,[1]; 50 mg/kg,2.01 ± 0.50 mmol/L
same,Urea in blood serum,[1]; 50 mg/kg,10.33 ± 0.51 Mkmol/l
same,Glucose in blood serum,[1]; 50 mg/kg,10 ± 0.41 mM
same,ALT in blood serum,[1]; 50 mg/kg,7.63 ± 1.95 unit/l
same,AST in blood serum,[1]; 50 mg/kg,19.49 ± 2.90 unit/1
same,Bilirubin in blood serum,[1]; 50 mg/kg,43.07 ± 3.57 mmol/L
same,Creatinine in blood serum,[1]; 50 mg/kg,45.59 ± 2.68 mkmol/l
same,Alkalinous phosphatase in blood serum,[1]; 50 mg/kg,40.74 ± 6.78 unit/l
same,Total protein in blood serum,[1]; 50 mg/kg,90.22 ± 6.78 g/L
same,Cholesterol in blood serum,[1]; 500 mg/kg,2.30 ± 0.57 mmol/L
same,Urea in blood serum,[1]; 500 mg/kg,10.89 ± 0.73 Mkmol/l
same,Glucose in blood serum,[1]; 500 mg/kg,10.7 ± 0.41 mM
same,ALT in blood serum,[1]; 500 mg/kg,9.48 ± 1.85 unit/l
same,AST in blood serum,[1]; 500 mg/kg,15.14 ± 1.58 unit/1
same,Bilirubin in blood serum,[1]; 500 mg/kg,40.69 ± 15.75 mmol/L
same,Creatinine in blood serum,[1]; 500 mg/kg,48.27 ± 12.29 mkmol/l
same,Alkalinous phosphatase in blood serum,[1]; 500 mg/kg,41.60 ± 2.26 unit/l
same,Total protein in blood serum,[1]; 500 mg/kg,71.56 ± 8.23 g/L
same,Bilirubin (urine),[2]; dose 50 mg/kg,<5 Mkmol/l
same,Glucose (urine),[2]; dose 50 mg/kg,<6 mmol/L
same,Ketone bodies (urine),[2]; dose 50 mg/kg,<1 mmol/L
same,Potassium (urine),[2]; dose 50 mg/kg,5.28 ± 1.5 g/L
same,Protein (urine),[2]; dose 50 mg/kg,0.71 ± 0.274 g/L
same,Sodium (urine),[2]; dose 50 mg/kg,1.2 ± 0.4 g/L
same,Urea (urine),[2]; dose 50 mg/kg,413 ± 128 mmol/L
same,Urobilinogen (urine),[2]; dose 50 mg/kg,<17 Mkmol/l
same,pH (urine),[2]; dose 50 mg/kg,6.3 ± 0.4
same,Bilirubin (urine),[2]; dose 500 mg/kg,<5 Mkmol/l
same,Glucose (urine),[2]; dose 500 mg/kg,<6 mmol/L
same,Ketone bodies (urine),[2]; dose 500 mg/kg,<1 mmol/L
same,Potassium (urine),[2]; dose 500 mg/kg,6.13 ± 1.6 g/L
same,Protein (urine),[2]; dose 500 mg/kg,0.87 ± 0.24 g/L
same,Sodium (urine),[2]; dose 500 mg/kg,0.64 ± 0.4 g/L
same,Urea (urine),[2]; dose 500 mg/kg,485 ± 131 mmol/L
same,Urobilinogen (urine),[2]; dose 500 mg/kg,<17 Mkmol/l
same,pH (urine),[2]; dose 500 mg/kg,6.2 ± 0.3
same,number of electrons participating in the reduction reaction,[3]; calculated with Geirovsky-Ilkovich equation,4.09
same,i,[3]; pH 7.0,0.23 ± 0.03 mkA
same,−E1/2,[3]; pH 7.0,0.092 ± 0.02 V
same,i,[3]; pH 7.2,0.30 ± 0.01 mkA
same,−E1/2,[3]; pH 7.2,0.09 ± 0.01 V
same,i,[3]; pH 7.4,0.29 ± 0.02 mkA
same,−E1/2,[3]; pH 7.4,0.092 ± 0.02 V
same,i,[3]; pH 7.6,0.31 ± 0.02 mkA
same,−E1/2,[3]; pH 7.6,0.09 ± 0.01 V
same,half-wave potential more positive at reverse stroke compared to forward stroke,[3]; polarograms of reverse stroke,30.0 mV
same,"γ-GTP in blood plasma, Ci",[4]; Control + compound,7.03 ± 2.82 mE/l
same,"ALT in blood plasma, Ci",[4]; Control + compound,113.48 ± 2.39 mE/l
same,"AST in blood plasma, Ci",[4]; Control + compound,173.46 ± 5.63 mE/l
same,"γ-GTP in blood plasma, Ci",[4]; control + Morphine + Compound,10.69 ± 1.84 mE/l
same,"ALT in blood plasma, Ci",[4]; control + Morphine + Compound,121.08 ± 5.04 mE/l
same,"AST in blood plasma, Ci",[4]; control + Morphine + Compound,195.57 ± 18.68 mE/l
same,Basophiles,[5]; 50 mg/kg,0%
same,Juveniles,[5]; 50 mg/kg,0%
same,Stab neutrophil,"[5]; 50 mg/kg, 1 month, control 0.8 ± 0.4",1.2 ± 0.5%
same,REE,"[5]; 50 mg/kg, 1 month, control 2.2 ± 0.4",1.8 ± 0.4 mm/h
same,Reticulocytes,"[5]; 50 mg/kg, 1 month, control 2.8%0.3",2.6 ± 0.2%
same,Eosinophiles,"[5]; 50 mg/kg, 1 month, control 4.0 + 0.3",3.2 ± 1.0%
same,Erythrocytes,"[5]; 50 mg/kg, 1 month, control 5.6 ± 0.1",5.7 ± 0.2 mln/mm^3
same,Hemoglobin,"[5]; 50 mg/kg, 1 month, control 10.5 ± 0.2",10.6 ± 0.2 mmol/L
same,Leukocyte,"[5]; 50 mg/kg, 1 month, control 17.4 ± 1.3",14.8 ± 2.0 thousand/mm^3
same,Haematocrite,"[5]; 50 mg/kg, 1 month, control 45.9 ± 1.7",47.9 ± 1.4%
same,Average volume of erythrocytes,"[5]; 50 mg/kg, 1 month, control 81.4 ± 1.7",84.4 ± 1.5 Mkm^3
same,"Coagulation, time","[5]; 50 mg/kg, 1 month, control 152 ± 10.2",140 ± 12.2 s
same,REE,"[5]; 50 mg/kg, 2 months, control 1.4 ± 0.2",1.6 ± 0.2 mm/h
same,Stab neutrophil,"[5]; 50 mg/kg, 2 months, control 2.4 ± 0.4",0.8 ± 0.5%
same,Reticulocytes,"[5]; 50 mg/kg, 2 months, control 2.9 ± 0.2",3.0 ± 0.1%
same,Eosinophiles,"[5]; 50 mg/kg, 2 months, control 4.4 + 1.2",3.6 ± 1.2%
same,Erythrocytes,"[5]; 50 mg/kg, 2 months, control 6.1 ± 0.1",6.0 ± 0.1 mln/mm^3
same,Hemoglobin,"[5]; 50 mg/kg, 2 months, control 11.4 ± 0.2",11.2 ± 0.1 mmol/L
same,Leukocyte,"[5]; 50 mg/kg, 2 months, control 19.1 ± 1.9",16.3 ± 1.0 thousand/mm^3
same,Haematocrite,"[5]; 50 mg/kg, 2 months, control 45.9 ± 1.8",47.5 ± 1.2%
same,Average volume of erythrocytes,"[5]; 50 mg/kg, 2 months, control 74.6 + 1.9",78.6 ± 1.5 Mkm^3
same,"Coagulation, time","[5]; 50 mg/kg, 2 months, control 316 ± 8",321 ± 12 s
same,Basophiles,[5]; 500 mg/kg,0%
same,Juveniles,[5]; 500 mg/kg,0%
same,Stab neutrophil,"[5]; 500 mg/kg, 1 month, control 0.8 ± 0.4",0.8 ± 0.5/0.8 ± 0.5%
same,REE,"[5]; 500 mg/kg, 1 month, control 2.2 ± 0.4",2.2 ± 0.4 mm/h
same,Reticulocytes,"[5]; 500 mg/kg, 1 month, control 2.8%0.3",3.1 ± 0.2%
same,Eosinophiles,"[5]; 500 mg/kg, 1 month, control 4.0 + 0.3",3.0 ± 1.0%
same,Erythrocytes,"[5]; 500 mg/kg, 1 month, control 5.6 ± 0.1",5.7 ± 0.1 mln/mm^3
same,Hemoglobin,"[5]; 500 mg/kg, 1 month, control 10.5 ± 0.2",10.6 ± 0.2 mmol/L
same,Leukocyte,"[5]; 500 mg/kg, 1 month, control 17.4 ± 1.3",17.0 ± 1.4 thousand/mm^3
same,Haematocrite,"[5]; 500 mg/kg, 1 month, control 45.9 ± 1.7",47.6 ± 1.3%
same,Average volume of erythrocytes,"[5]; 500 mg/kg, 1 month, control 81.4 ± 1.7",82.6 ± 1.1 Mkm^3
same,"Coagulation, time","[5]; 500 mg/kg, 1 month, control 152 ± 10.2",151 ± 6.4 s
same,REE,"[5]; 500 mg/kg, 2 months, control 1.4 ± 0.2",1.8 ± 0.4 mm/h
same,Stab neutrophil,"[5]; 500 mg/kg, 2 months, control 2.4 ± 0.4",0.8 ± 0.5/0.8 ± 0.5%
same,Reticulocytes,"[5]; 500 mg/kg, 2 months, control 2.9 ± 0.2",3.3 ± 0.3%
same,Eosinophiles,"[5]; 500 mg/kg, 2 months, control 4.4 + 1.2",3.2 ± 1.4%
same,Erythrocytes,"[5]; 500 mg/kg, 2 months, control 6.1 ± 0.1",6.7 ± 0.2 mln/mm^3
same,Hemoglobin,"[5]; 500 mg/kg, 2 months, control 11.4 ± 0.2",12.5 ± 0.4 mmol/L
same,Leukocyte,"[5]; 500 mg/kg, 2 months, control 19.1 ± 1.9",21.1 ± 2.4 thousand/mm^3
same,Haematocrite,"[5]; 500 mg/kg, 2 months, control 45.9 ± 1.8",53.9 ± 2.1%
same,Average volume of erythrocytes,"[5]; 500 mg/kg, 2 months, control 74.6 + 1.9",80.21 ± 1.2 Mkm^3
same,"Coagulation, time","[5]; 500 mg/kg, 2 months, control 316 ± 8",308 ± 16 s

# Reference: US8592421B2, “Cyclic bioisosters of purine system derivatives and a pharmaceutical composition based thereon” (priority 2003, dated 2013)
